The test system of one series is MRSA ATCC 43300. The experiment in a line: MIC/MBC by broth dilution (CLSI). It counts as cell-based, Staphylococcus aureus. As to conditions: Staphylococcus aureus; for MBC: MRSA ATCC 43300, 99.9% of the bacteria killed; for MIC: MRSA ATCC 43300, broth dilution, 24 h, 37 °C, read-out: MIC. On the procedure: (§1) The in vitro antimicrobial activity of the pleuromutilin derivatives was assessed against MRSA ATCC 43300, S. aureus ATCC 29213, S. aureus 144 and S. aureus AD3 according to the Clinical and Laboratory Standards Institute (CLSI). Tiamulin was used as a positive control drug. The results were summarized as the minimum inhibitory concentration (MIC) and the minimum bactericidal concentration (MBC) in Table 1 and Table 2. In addition, MIC results for the pleuromutilin derivatives against four Gram-negative bacteria are supplied in Tables S2 and S3.
(§2) The MIC and MBC values of the synthesized novel pleuromutilin derivatives against MRSA ATCC 43300, S. aureus ATCC 29213, S. aureus 144 and S. aureus AD3 were measured. Tiamulin was used as a positive control drug. The MIC and MBC values were manipulated by broth dilution according to the Clinical and Laboratory Standards (CLSI). Each compound to be measured was dissolved in a solution of 95% deionized water, 2.5% dimethyl sulfoxide (DMSO) and 2.5% Tween-80 with a concentration of 1280 µg/mL. Subsequently, serial twofold dilutions were made in a concentration range from 64 µg/mL to 0.0625 µg/mL. The working bacterial suspension was inoculated into each well, which provided the final inoculum density of 5 × 10^5 CFU/mL. Three parallel experiments were performed for each compound.
(§3) Overall, 25 µL of the bacterial solution from the wells with no obvious bacterial growth was inoculated on MH agar plates. Then, the inoculated MH agar plates were further cultured at 37 °C for 24 h.

The subject of the next series is S. aureus AD3. The experiment in a line: MIC/MBC by broth dilution (CLSI). It counts as cell-based. As to conditions: Staphylococcus aureus, S. aureus AD3 (clinical strain). The procedure:
as §1, §2, §3

A further series concerns S. aureus ATCC 29213. Description: MIC/MBC by broth dilution (CLSI). It counts as cell-based. As to conditions: Staphylococcus aureus, ATCC29213; for MBC: S. aureus ATCC 29213; for MIC: S. aureus ATCC 29213, broth dilution, 24 h, 37 °C. The procedure: as §1, §2, §3
A further series relates to S. aureus 144. The experiment in a line: MIC/MBC by broth dilution (CLSI). It counts as cell-based. As to conditions: Staphylococcus aureus; S. aureus 144 (clinical strain). The procedure: as §1, §2, §3

Values after ≈ are worked out from the molar mass of the structure shown. A value given as a limit tells only on which side of the number the result lay.

As for `C=C[C@]1(C)C[C@@H](OC(=O)CNc2nc(Cl)nc3c2cnn3-c2cccc(C)c2)[C@]2(C)[C@H](C)CC[C@]3(CCC(=O)[C@H]32)[C@@H](C)[C@@H]1O` [Compound 12b, 22-[(6-Chloro-1-(3-methylphenyl)-1H-pyrazolo[3,4-d]pyrimidine-4-yl)amino]-22-deoxypleuromutilin], the melting point lay in the range of 97 to 99 °C. Also, in the series on MRSA ATCC 43300, the MBC was found to be 32 µg/mL (≈ 51.6 µM) and the MIC came to 8 µg/mL (≈ 12.9 µM). In the series on S. aureus AD3, the MBC was found to be 16 µg/mL (≈ 25.8 µM) and the MIC stood at 4 µg/mL (≈ 6.45 µM). Also, in the series with S. aureus ATCC 29213, the MBC was 32 µg/mL (≈ 51.6 µM) and the MIC was found to be 8 µg/mL (≈ 12.9 µM). For the same molecule, in the series with S. aureus 144, the MBC came out at 32 µg/mL (≈ 51.6 µM) and it took 8 µg/mL (≈ 12.9 µM) to inhibit growth (MIC).
On to `C=C[C@]1(C)C[C@@H](OC(=O)CNc2nc(Cl)nc3c2cnn3-c2ccc(C)cc2)[C@]2(C)[C@H](C)CC[C@]3(CCC(=O)[C@H]32)[C@@H](C)[C@@H]1O` [Compound 13b, 22-[(6-Chloro-1-(4-methylphenyl)-1H-pyrazolo[3,4-d]pyrimidine-4-yl)amino]-22-deoxypleuromutilin], for which the MBC against MRSA ATCC 43300 was 32 µg/mL (≈ 51.6 µM); in the series on S. aureus AD3, over 64 µg/mL; against S. aureus ATCC 29213 it was over 64 µg/mL; in the series on S. aureus 144, over 64 µg/mL. Moreover, the MIC with MRSA ATCC 43300 turned out to be 16 µg/mL (≈ 25.8 µM); against S. aureus AD3, 16 µg/mL (≈ 25.8 µM); in the series with S. aureus ATCC 29213, 32 µg/mL (≈ 51.6 µM); against S. aureus 144, 32 µg/mL (≈ 51.6 µM).
In turn, `C=C[C@]1(C)C[C@@H](OC(=O)CSc2ccc(Nc3nc(Cl)nc4c3cnn4-c3ccc(C)cc3)cc2)[C@]2(C)[C@H](C)CC[C@]3(CCC(=O)[C@H]32)[C@@H](C)[C@@H]1O` [Compound 13c, 22-[4-(6-Chloro-1-(4-methylphenyl)-1H-pyrazolo[3,4-d]pyrimidine-4-yl)amino-phenylsulfanyl]-22-deoxypleuromutilin] displayed a melting point of 101 to 105 °C. Besides, in the series with MRSA ATCC 43300, the MBC was over 64 µg/mL and the MIC is 8 µg/mL (≈ 11 µM). In the series on S. aureus AD3 (24 h), this molecule gave an MBC of over 64 µg/mL and an MIC of 4 µg/mL (≈ 5.49 µM). In the series on S. aureus ATCC 29213, the MBC is over 64 µg/mL and the MIC is 8 µg/mL (≈ 11 µM). Moreover, in the series with S. aureus 144, the MBC was over 64 µg/mL and inhibition of growth (MIC) required 16 µg/mL (≈ 22 µM).
As for `C=C[C@]1(C)C[C@@H](OC(=O)CNc2nc(Cl)nc3c2cnn3-c2ccc(C)c(C)c2)[C@]2(C)[C@H](C)CC[C@]3(CCC(=O)[C@H]32)[C@@H](C)[C@@H]1O` [Compound 14b, 22-[(6-Chloro-1-(3,4-dimethylphenyl)-1H-pyrazolo[3,4-d]pyrimidine-4-yl)amino]-22-deoxypleuromutilin], the melting point fell in the range of 99 to 103 °C. In addition, in the series with MRSA ATCC 43300, the MBC is over 64 µg/mL and the MIC amounted to 16 µg/mL (≈ 25.2 µM). Also, in the series with S. aureus AD3, the MBC was over 64 µg/mL and the MIC was determined as 16 µg/mL (≈ 25.2 µM). Further, in the series on S. aureus ATCC 29213, the MBC was over 64 µg/mL and the MIC was determined as 16 µg/mL (≈ 25.2 µM). In addition, in the series on S. aureus 144, the MBC was over 64 µg/mL and the MIC was found to be 16 µg/mL (≈ 25.2 µM).
The molecule `C=C[C@]1(C)C[C@@H](OC(=O)CSc2ccc(Nc3nc(Cl)nc4c3cnn4-c3ccc(C)c(C)c3)cc2)[C@]2(C)[C@H](C)CC[C@]3(CCC(=O)[C@H]32)[C@@H](C)[C@@H]1O` [Compound 14c, 22-[4-(6-Chloro-1-(3,4-dimethylphenyl)-1H-pyrazolo[3,4-d]pyrimidine-4-yl)amino-Phenylsulfanyl]-22-deoxypleuromutilin] yielded a melting point of 103 to 105 °C. Further, the MIC in the series on MRSA ATCC 43300 is over 64 µg/mL. In addition, in the series with S. aureus AD3, the MIC is over 64 µg/mL. The MIC against S. aureus ATCC 29213 was over 64 µg/mL. The same molecule registered an MIC with S. aureus 144 of over 64 µg/mL.
`C=C[C@]1(C)C[C@@H](OC(=O)CNc2nc(Cl)nc3c2cnn3-c2cc(C)cc(C)c2)[C@]2(C)[C@H](C)CC[C@]3(CCC(=O)[C@H]32)[C@@H](C)[C@@H]1O` [Compound 15b, 22-[(6-Chloro-1-(3,5-dimethylphenyl)-1H-pyrazolo[3,4-d]pyrimidine-4-yl)amino]-22-deoxypleuromutilin] returned a melting point of 95 to 100 °C. In addition, the MIC in the series on MRSA ATCC 43300 is over 64 µg/mL. The MIC in the series with S. aureus AD3 was over 64 µg/mL. Also, the MIC with S. aureus ATCC 29213 is over 64 µg/mL. Besides, the MIC in the series with S. aureus 144 is over 64 µg/mL.
`C=C[C@]1(C)C[C@@H](OC(=O)CSc2ccc(Nc3nc(Cl)nc4c3cnn4-c3cc(C)cc(C)c3)cc2)[C@]2(C)[C@H](C)CC[C@]3(CCC(=O)[C@H]32)[C@@H](C)[C@@H]1O` [Compound 15c, 22-[4-(6-Chloro-1-(3,5-dimethylphenyl)-1H-pyrazolo[3,4-d]pyrimidine-4-yl)amino-Phenylsulfanyl]-22-deoxypleuromutilin] showed a melting point of 92 to 95 °C. Moreover, in the series on MRSA ATCC 43300, the MIC is over 64 µg/mL. The MIC against S. aureus AD3 is over 64 µg/mL. For the same molecule, the MIC in the series on S. aureus ATCC 29213 was over 64 µg/mL. The MIC in the series on S. aureus 144 was over 64 µg/mL.
On to `C=C[C@]1(C)C[C@@H](OC(=O)CNc2nc(Cl)nc3c2cnn3-c2ccc(CC)cc2)[C@]2(C)[C@H](C)CC[C@]3(CCC(=O)[C@H]32)[C@@H](C)[C@@H]1O` [Compound 16b, 22-[(6-Chloro-1-(4-ethylphenyl)-1H-pyrazolo[3,4-d]pyrimidine-4-yl)amino]-22-deoxypleuromutilin], for which the melting point was in the range of 101 to 103 °C. In addition, in the series on MRSA ATCC 43300, the MBC was over 64 µg/mL and the MIC came to 32 µg/mL (≈ 50.5 µM). In the series with S. aureus AD3, this molecule showed an MBC of over 64 µg/mL and an MIC of 16 µg/mL (≈ 25.2 µM). For the same molecule, in the series with S. aureus ATCC 29213, the MBC was over 64 µg/mL and the MIC worked out at 32 µg/mL (≈ 50.5 µM). In the series on S. aureus 144, this molecule had an MBC of over 64 µg/mL and an MIC of 32 µg/mL (≈ 50.5 µM).
Take `C=C[C@]1(C)C[C@@H](OC(=O)CSc2ccc(Nc3nc(Cl)nc4c3cnn4-c3ccc(CC)cc3)cc2)[C@]2(C)[C@H](C)CC[C@]3(CCC(=O)[C@H]32)[C@@H](C)[C@@H]1O` [Compound 16c, 22-[4-(6-Chloro-1-(4-ethylphenyl)-1H-pyrazolo[3,4-d]pyrimidine-4-yl)amino-Phenylsulfanyl]-22-deoxypleuromutilin]: the melting point was 97 to 99 °C. Also, the MIC in the series with MRSA ATCC 43300 was over 64 µg/mL. Also, in the series on S. aureus AD3, the MIC is over 64 µg/mL. Moreover, the MIC with S. aureus ATCC 29213 is over 64 µg/mL. For the same molecule, the MIC with S. aureus 144 was over 64 µg/mL.
Regarding `C=C[C@]1(C)C[C@@H](OC(=O)CNc2nc(Cl)nc3c2cnn3-c2cccc(OC)c2)[C@]2(C)[C@H](C)CC[C@]3(CCC(=O)[C@H]32)[C@@H](C)[C@@H]1O` [Compound 17b, 22-[(6-Chloro-1-(3-methoxyphenyl)-1H-pyrazolo[3,4-d]pyrimidine-4-yl)amino]-22-deoxypleuromutilin], the melting point fell in the range of 99 to 104 °C. Besides, the MIC in the series with MRSA ATCC 43300 was over 64 µg/mL. The same molecule gave a minimal inhibitory concentration (MIC) against S. aureus AD3 of over 64 µg/mL. This molecule gave an MIC against S. aureus ATCC 29213 of over 64 µg/mL. Further, the MIC against S. aureus 144 is over 64 µg/mL.
Molecule `C=C[C@]1(C)C[C@@H](OC(=O)CSc2ccc(Nc3nc(Cl)nc4c3cnn4-c3cccc(OC)c3)cc2)[C@]2(C)[C@H](C)CC[C@]3(CCC(=O)[C@H]32)[C@@H](C)[C@@H]1O` [Compound 17c, 22-[4-(6-Chloro-1-(3-methoxyphenyl)-1H-pyrazolo[3,4-d]pyrimidine-4-yl)amino-Phenylsulfanyl]-22-deoxypleuromutilin] came in with a melting point of 97 to 102 °C. In addition, in the series on MRSA ATCC 43300, the MIC was over 64 µg/mL. Also, the MIC with S. aureus AD3 was over 64 µg/mL. The molecule further came in with an MIC in the series on S. aureus ATCC 29213 of over 64 µg/mL. This molecule also had an MIC against S. aureus 144 of over 64 µg/mL.
The molecule `C=C[C@]1(C)C[C@@H](OC(=O)CNc2nc(Cl)nc3c2cnn3-c2ccccc2F)[C@]2(C)[C@H](C)CC[C@]3(CCC(=O)[C@H]32)[C@@H](C)[C@@H]1O` [Compound 18b, 22-[(6-Chloro-1-(2-fluorophenyl)-1H-pyrazolo[3,4-d]pyrimidine-4-yl)amino]-22-deoxypleuromutilin] returned a melting point of 107 to 110 °C. Further, the MIC in the series with MRSA ATCC 43300 was over 64 µg/mL. Also, the MIC against S. aureus AD3 was over 64 µg/mL. Further, the MIC against S. aureus ATCC 29213 was over 64 µg/mL. In the series with S. aureus 144, this molecule had an MIC of over 64 µg/mL.
In the case of `C=C[C@]1(C)C[C@@H](OC(=O)CNc2nc(Cl)nc3c2cnn3-c2ccc(OC(F)(F)F)cc2)[C@]2(C)[C@H](C)CC[C@]3(CCC(=O)[C@H]32)[C@@H](C)[C@@H]1O` [Compound 23b, 22-[(6-Chloro-1-(4-(trifluoromethoxy)Phenyl)-1H-pyrazolo[3,4-d]pyrimidine-4-yl)amino]-22-deoxypleuromutilin], the MIC in the series with MRSA ATCC 43300, against S. aureus AD3, in the series with S. aureus ATCC 29213 and in the series on S. aureus 144 was over 64 µg/mL in each case.
In the case of `C=CC1(C)CC(OC(=O)CSc2ccc(N)cc2)C2(C)C(C)CCC3(CCC(=O)C32)C(C)C1O` (stereo not drawn) [Compound 32, 22-(4-Amino-phenylsulfanyl)deoxypleuromutilin], the MIC in the series with MRSA ATCC 43300 was determined as 0.0015 µg/mL (≈ 0.00309 µM); in the series on S. aureus AD3 (24 h), 0.0015 µg/mL (≈ 0.00309 µM); in the series with S. aureus ATCC 29213 it was 0.0015 µg/mL (≈ 0.00309 µM); in the series on S. aureus 144, 0.003 µg/mL (≈ 0.00618 µM).
